The source of these data is article doi:10.1101/2021.08.31.458471v1 (biorxiv, 2021).

Assay [1] deals with McpA signaling domain (McpAc) (Bacillus subtilis, UniProt P39214). The assay can be described thus: biochemical.
In the next assay the target is McpB signaling domain (Bacillus subtilis, UniProt P39215). The note with it: 20 µM protein, 2 mM benzene, PBS in D2O pH 7.4, 298 K.

Structures are written as SMILES.

Sequence of McpB signaling domain (P39215 359-662): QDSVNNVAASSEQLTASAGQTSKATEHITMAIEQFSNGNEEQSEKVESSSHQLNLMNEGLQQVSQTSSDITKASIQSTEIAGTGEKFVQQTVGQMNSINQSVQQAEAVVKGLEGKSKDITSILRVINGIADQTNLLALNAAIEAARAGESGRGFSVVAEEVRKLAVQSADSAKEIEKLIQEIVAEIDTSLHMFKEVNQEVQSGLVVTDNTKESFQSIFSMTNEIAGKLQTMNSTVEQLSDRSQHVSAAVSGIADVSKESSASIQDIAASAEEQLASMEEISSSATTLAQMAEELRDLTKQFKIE
Sequence of McpA signaling domain (McpAc) (P39214 359-661): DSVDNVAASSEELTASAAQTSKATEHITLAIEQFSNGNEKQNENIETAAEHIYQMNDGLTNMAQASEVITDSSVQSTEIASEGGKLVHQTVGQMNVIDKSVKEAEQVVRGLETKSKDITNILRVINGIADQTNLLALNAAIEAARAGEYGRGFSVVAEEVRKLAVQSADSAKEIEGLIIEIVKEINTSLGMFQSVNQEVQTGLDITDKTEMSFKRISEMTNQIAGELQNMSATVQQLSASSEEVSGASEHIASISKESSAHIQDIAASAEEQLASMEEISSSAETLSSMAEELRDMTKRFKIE

By Kd is commonly meant the equilibrium constant for the complex coming apart. The low end stands for a tighter complex, the high end for a looser complex. In assay [1], `Oc1ccccc1` [phenol] yielded a dissociation constant (Kd) of 4.8 mM.

Consider `c1ccccc1` [benzene], for which the STD-AF on McpB signaling domain is 16.4%.
